Patent US6169181A, “Compounds useful to treat retroviral infections” (Pharmacia & Upjohn Company, priority 1998, dated 2001)
Values joined by “and” are separate entries in the source; they are usually repeats but may differ in a detail not shown here. Identical values can stand only once. Like-named read-outs stand apart in the source and are kept apart here.

Legend:
[1] = molecular target: T1, single chain tethered (tandem) HIV protease (HIV-1 M:B_HXB2R, UniProt P04585); experiment: Tandem HIV protease assay; assay type: biochemical; conditions: read-out: FITC KI; Table II; enzyme HIV1TANDEM
T1 construct: purified enzyme, FITC/biotin substrate assay
Method in brief: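 Covalently tethered single-chain HIV protease dimer allows very low enzyme levels for Ki measurement. N-biotinylated, C-fluorescein-labelled peptide substrate incubated with enzyme and inhibitor at pH 5.5 in the dark for 96 h; streptavidin beads stop reaction, cleaved product filtered off and residual fluorescence fitted to obtain Ki.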

HIV-2 = molecular target: T2, HIV-2 (Human immunodeficiency virus type 2 subtype A, UniProt P04584); experiment: FITC Ki, enzyme HIV-2; assay type: biochemical; conditions: Table II
T2 construct: tested in the HIV protease screening assay and/or tandem HIV protease assay
T2 sequence (P04584 514-612 limits assumed): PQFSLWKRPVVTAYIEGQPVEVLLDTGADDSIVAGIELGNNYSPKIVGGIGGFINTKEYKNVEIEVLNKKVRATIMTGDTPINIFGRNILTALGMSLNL

HIV-1 protease [2] = molecular target: T3, HIV-1 protease (Human immunodeficiency virus type 1 group M subtype B, UniProt P04585); experiment: biochemical
Method in brief: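 Biotinylated, FITC-labelled peptide substrate cleaved in 0.1 M sodium acetate pH 5.5, 1.0 M NaCl, 0.05% NP-40, room temperature. Filtered labelled product read by fluorescence; nonlinear least-squares fit.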

HIV-1 protease [3] = molecular target: T3, HIV-1 protease; experiment: biochemical; remark: listed apart in the source
Method in brief: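 Percent inhibition came from fluorescence of FITC-tagged cleavage product, separated by filtration from uncleaved substrate captured on streptavidin-coated beads. The enzyme (10 μl of 0.1 μM) and compound acted on a biotin/FITC dual-labelled peptide for one hour at room temperature in the dark. The reaction ran in 0.1 M sodium acetate, pH 5.5, with 1.0 M NaCl and 0.05% NP-40.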

[4] = test system: human T-cell lines, e.g., MT4 and H9, infected with HIV-1IIIB; experiment: Retroviral replication in infected human T-cell lines; assay type: cell-based; conditions: MT4 and H9 cells infected with HIV-1IIIB
Experimental: Several compounds of the present invention, such as N-[3-(1-[5,6-Dihydro-4-hydroxy-2-oxo-6-(2-phenethyl)-6-propyl-2H-pyran-3-yl]-2,2-dimethylpropyl)phenyl]-1-methyl-1H-imidazole-4-sulfonamide were tested in known human cell lines, such as human T-cell lines, e.g., MT4 and H9, which were infected with HIV-1IIIB, and certain of these compounds were further tested in peripheral blood mononuclear cells (PBMC), which were infected with HIV-1JRCSF (a clinical isolate).

[5] = Table II, enzyme HIV-1, read-out: FITC KI
[6] = Table II, enzyme HIV-1, DOSE 0.123 (unit not given)
[7] = Table II, enzyme HIV-1, DOSE 0.370 (unit not given)
[8] = Table II, enzyme HIV-1, DOSE 1.100 (unit not given)
[9] = Table II, enzyme HIV-1, DOSE 3.300 (unit not given)
[10] = Table II, enzyme HIV-1, DOSE 10.000 (unit not given)
[11] = Table II, enzyme HIV-1, DOSE 30.000 (unit not given)

Row | SMILES | Ki [1] [nM] | Ki (HIV-2) [nM] | Ki (HIV-1 protease [2]; [5]) [nM] | PROTEASE % INHIB. (HIV-1 protease [3]; [6]) [%] | PROTEASE % INHIB. (HIV-1 protease [3]; [7]) [%] | PROTEASE % INHIB. (HIV-1 protease [3]; [8]) [%] | PROTEASE % INHIB. (HIV-1 protease [3]; [9]) [%] | PROTEASE % INHIB. (HIV-1 protease [3]; [10]) [%] | PROTEASE % INHIB. (HIV-1 protease [3]; [11]) [%] | inhibition of retroviral replication [4] | Ki (HIV-1 protease [2]; Table I, read-out: HIV Protease FITC Assay Ki) [nM] | PROTEASE % INHIB. (HIV-1 protease [3])
1 | CCC(C1=C(O)C2CCCCC2OC1=O)c1cccc(NS(=O)(=O)c2ccc(C#N)cn2)c1 (stereo not shown) [Example 370] | 0.05 | 0.05 | 0.59 | 92.81 | 87.87 | 102.89 | 109.33 | 113.79 | 98.14 |  |  | 
2 | CCCC1(CCc2ccccc2)CC(O)=C(C(c2cccc(NS(=O)(=O)c3cn(C)cn3)c2)C(C)(C)C)C(=O)O1 (stereo not shown) [Example 250, N-[3-(1-[5,6-Dihydro-4-hydroxy-2-oxo-6-(2-phenethyl)-6-propyl-2H-pyran-3-yl]-2,2-dimethylpropyl)phenyl]-1-methyl-1H-imidazole-4-sulfonamide] |  |  |  |  |  |  |  |  |  | inhibit retroviral replication | 1.2 | 
3 | CCCC1(CCc2ccc(F)cc2)CC(O)=C(C(CC)c2cccc(NS(=O)(=O)c3ccc(C(N)=O)cn3)c2)C(=O)O1 (stereo not shown) [Example 332, N-[3-{1-(4-Hydroxy-5,6-dihydro-2-oxo-6-(2-(4-fluorophenyl)ethyl)-6-propyl-2H-pyran-3-yl)propyl}phenyl]-5-carbamoylpyridine-2-sulfonamide] | 0.4 |  | 1.6 | 81.87 | 85.65 | 86.23 | 93.28 | 91.68 | 95.08 |  |  | 
4 | Cn1cnc(S(=O)(=O)Nc2cccc(C(C3=C(O)CC(CCc4ccccc4)(CCC(F)(F)F)OC3=O)C(C)(C)C)c2)c1 (single isomer, unassigned) [Example 270, N-[3-(R or S)-[1-[5,6-dihydro-4-hydroxy-2-oxo-6-(R or S)-(2-phenethyl)-6-(3,3,3-trifluoropropyl)-2H-pyran-3-yl]-2,2-dimethylpropyl]phenyl]-1-methyl-1H-imidazole-4-sulfonamide] | 0.024 |  |  | 75.26 | 85.62 | 93.45 | 96.62 | 94.57 | 82.67 |  |  | 
5 | CCC[C@@]1(CCc2ccccc2)CC(O)=C([C@@H](c2cccc(NS(=O)(=O)c3cn(C)cn3)c2)C(C)(C)C)C(=O)O1 (single isomer, unassigned) [Example 308, N-[3(R or S)-[1-(5,6-Dihydro-4-hydroxy-2-oxo-6(R or S)-[2-phenylethyl]-6-propyl-2H-pyran-3-yl)-2,2-dimethylpropyl]phenyl]-1-methyl-1H-imidazole-4-sulfonamide] | 0.074 |  |  | 75.06 | 108.14 | 95.01 | 108.43 | 110.75 | 96.28 |  |  | 
6 | CCC[C@@]1(CCc2ccc(F)cc2)CC(O)=C([C@@H](c2cccc(NS(=O)(=O)c3ccc(N)cn3)c2)C(C)(C)C)C(=O)O1 (single isomer, unassigned) [Example 317, 5-Amino-N-[3(R or S)-(1-[6(R or S)-(2-[4-fluorophenyl]ethyl)-5,6-dihydro-4-hydroxy-2-oxo-6-propyl-2H-pyran-3-yl]-2,2-dimethyl-propyl)phenyl]-2-pyridine-sulfonamide] | 0.04 |  |  | 87.38 | 94.14 | 98.45 | 95.97 | 101.26 | 108.59 |  |  | 
7 | CCCC1(CCC)CC(O)=C(C(CC)c2cccc(NS(=O)(=O)c3ccc(C(N)=O)cn3)c2)C(=O)O1 (stereo not shown) [Example 334, N-[3-{1-(4-Hydroxy-5,6-dihydro-2-oxo-6,6-dipropyl-2H-pyran-3-yl)propyl}phenyl]-5-carbamoylpyridine-2-sulfonamide] | 0.45 |  |  | 93.49 | 90.25 | 94.57 | 102.47 | 97.61 | 96.3 |  |  | 
8 | CCC[C@]1(CCc2ccccc2)CC(O)=C([C@H](CC)c2cccc(NS(=O)(=O)c3ccc(C#N)cn3)c2)C(=O)O1 (single isomer, unassigned) [Example 336, N-[3-{1(R or S)-(4-Hydroxy-5,6-dihydro-2-oxo-6(S or R)-phenethyl-6-propyl-2H-pyran-3-yl)propyl}phenyl]-5-cyanopyridine-2-sulfonamide] | 0.032 |  |  |  |  |  |  |  |  |  |  | 65.64 and 112 and 89.54 and 88.06 and 77.12 and 62.28
9 | CCC[C@@]1(CCc2ccccc2)CC(O)=C([C@@H](c2cccc(NS(=O)(=O)c3cn(C)cn3)c2)C(C)(C)C)C(=O)O1 (single isomer, unassigned) [Example 310, N-[3(R or S)-[1-(5,6-Dihydro-4-hydroxy-2-oxo-6(R or S)-[2-phenylethyl]-6-propyl-2H-pyran-3-yl)-2,2-dimethylpropyl]phenyl]-1-methyl-1H-imidazole-4-sulfonamide] | 1.5 |  |  | 16.81 | 50.11 | 78.69 | 100.22 | 124.77 | 110.91 |  |  | 
10 | CCC[C@@]1(CCc2ccccc2)CC(O)=C([C@H](CC)c2cccc(NS(=O)(=O)c3ccc(N)cn3)c2)C(=O)O1 (single isomer, unassigned) [Example 315, 5-Amino-N-[3(R or S)-(1-[5,6-dihydro-4-hydroxy-2-oxo-6(R or S)-(2-phenylethyl)-6-propyl-2H-pyran-3-yl]propyl)phenyl]-2-pyridinesulfonamide] | 0.029 |  |  | 79.95 | 87.25 | 88.08 | 97.03 | 100.2 | 106.4 |  |  | 
11 | N#Cc1ccc(S(=O)(=O)Nc2cccc(CC3=C(O)CC(CCc4ccccc4)(CCc4ccccc4)OC3=O)c2)nc1 [Example 353, N-[3-{1-(4-Hydroxy-5,6-dihydro-2-oxo-6,6-bis(2-phenylethyl)-2H-pyran-3-yl)methyl}phenyl]-5-cyanopyridine-2-sulfonamide] | 5.3 |  | 10.4 | 51.83 | 68.49 | 70.71 | 63.96 | 51.8 | 43.93 |  |  | 
12 | CCC[C@]1(CCc2ccc(F)cc2)CC(O)=C([C@H](c2cccc(NS(=O)(=O)c3ccc(C#N)cn3)c2)C(C)(C)C)C(=O)O1 (single isomer, unassigned) [Example 348, N-[3-{1(S or R)-(4-Hydroxy-5,6-dihydro-2-oxo-6(S or R)-(2-(4-fluorophenyl)ethyl)-6-propyl-2H-pyran-3-yl)-2,2-dimethyl-propyl}phenyl]-5-cyanopyridine-2-sulfonamide] | 1.96 |  |  | 53.47 | 78.32 | 89.84 | 92.96 | 96.28 | 84.67 |  |  | 
13 | Cn1cnc(S(=O)(=O)Nc2cccc(C(C3=C(O)CC(CCc4ccccc4)(CCC(F)(F)F)OC3=O)C(C)(C)C)c2)c1 (single isomer, unassigned) [Example 276, N-[3-(R or S)-[1-[5,6-dihydro-4-hydroxy-2-oxo-6-(R or S)-(2-phenethyl)-6-(3,3,3-trifluoropropyl)-2H-pyran-3-yl]-2,2-dimethylpropyl]phenyl]-1-methyl-1H-imidazole-4-sulfonamide] | 33 |  |  | 16.49 | 38.95 | 66.1 | 90.01 | 90.97 | 87.6 |  |  | 
